# Measurements published in patent publication US11529359B2, “Use of GABAA receptor modulators for treatment of itch” (UNIVERSITÄT ZÜRICH, priority 2016, dated 2022).
# Legend:
# [1] = system: benzodiazepine binding site of GABAARs; assay: α-methyl 5-HT-induced itch in HRRR mice (α2, α3, α5 GABAARs benzodiazepine-insensitive); type: in vivo; conditions: 1 mg/kg p.o.; 20 μg α-methyl 5-HT
# Protocol: (§1) Acute itch was assessed in mice that received intradermal microinjections of pruritogens or 0.9% saline into the right cheek, which had been shaved at least one day before the experiment. In two sets of experiments that addressed the contribution of GABAARs in primary and secondary pruritoceptors, pruritogens were injected in the right thigh (FIG. 17). Before injection, mice were acclimatized to a 15 cm diameter cylindrical enclosure for more than 30 min with cage bedding on the ground. Background white noise generated by a radio in the room at ambient volume was applied to prevent auditory distraction. A 30 gauge needle was inserted bevel-up and pushed 5 mm horizontally into the skin beyond the point of insertion, before injection of the pruritogen (in a total volume of 10 μl). No anesthesia was used. Correct injection was confirmed by the appearance of a slightly domed bulla upon injection. […] Videos were analyzed off-line. Scratching of the hind paw directed to the ipsilateral cheek was counted in bouts, with one scratching bout defined as an instance when the mouse lifted its paw to scratch until it returned the paw to the cage floor. In case of experiments in which the pruritogen was injected in the skin of the thigh, the time spent biting the injected skin area was counted in s/min as a measure of itch.
# α3 GABAARs = target: T1, α3 GABAARs (Homo sapiens, UniProt P18507+P34903); assay: GABA-evoked currents, recombinant GABAARs in HEK293 cells (α3); type: cell-based; conditions: HEK293 cells transiently transfected
# T1 construct: expressed in transfected cells; host or cells: HEK293 cells (ATCC), transient transfection
# T1 sequence (P34903 29-492): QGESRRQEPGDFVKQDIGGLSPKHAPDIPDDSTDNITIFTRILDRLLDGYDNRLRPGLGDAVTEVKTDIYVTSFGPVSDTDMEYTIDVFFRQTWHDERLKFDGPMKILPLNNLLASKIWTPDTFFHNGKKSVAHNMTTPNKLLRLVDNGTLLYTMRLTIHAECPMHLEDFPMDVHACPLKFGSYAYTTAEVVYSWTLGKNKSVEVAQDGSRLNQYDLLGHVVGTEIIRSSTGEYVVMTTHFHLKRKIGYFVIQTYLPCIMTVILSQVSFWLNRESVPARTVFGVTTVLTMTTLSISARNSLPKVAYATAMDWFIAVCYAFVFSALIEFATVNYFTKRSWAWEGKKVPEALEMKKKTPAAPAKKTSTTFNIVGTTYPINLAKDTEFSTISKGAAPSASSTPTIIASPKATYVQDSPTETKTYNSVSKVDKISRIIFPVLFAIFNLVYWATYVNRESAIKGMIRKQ
# T1 sequence (P28472 26-473 partner): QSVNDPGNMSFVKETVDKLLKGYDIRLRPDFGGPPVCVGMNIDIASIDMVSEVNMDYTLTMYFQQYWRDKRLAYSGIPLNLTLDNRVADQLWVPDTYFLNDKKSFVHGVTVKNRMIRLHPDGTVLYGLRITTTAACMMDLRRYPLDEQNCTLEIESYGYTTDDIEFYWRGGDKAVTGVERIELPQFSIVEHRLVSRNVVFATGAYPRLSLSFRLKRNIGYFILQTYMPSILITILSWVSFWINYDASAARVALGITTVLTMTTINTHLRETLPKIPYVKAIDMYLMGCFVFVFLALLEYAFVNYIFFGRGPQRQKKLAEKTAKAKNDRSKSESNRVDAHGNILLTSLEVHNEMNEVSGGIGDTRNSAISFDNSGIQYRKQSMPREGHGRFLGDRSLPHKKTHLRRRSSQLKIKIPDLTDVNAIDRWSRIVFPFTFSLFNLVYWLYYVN
# T1 sequence (P18507 40-467 limits assumed): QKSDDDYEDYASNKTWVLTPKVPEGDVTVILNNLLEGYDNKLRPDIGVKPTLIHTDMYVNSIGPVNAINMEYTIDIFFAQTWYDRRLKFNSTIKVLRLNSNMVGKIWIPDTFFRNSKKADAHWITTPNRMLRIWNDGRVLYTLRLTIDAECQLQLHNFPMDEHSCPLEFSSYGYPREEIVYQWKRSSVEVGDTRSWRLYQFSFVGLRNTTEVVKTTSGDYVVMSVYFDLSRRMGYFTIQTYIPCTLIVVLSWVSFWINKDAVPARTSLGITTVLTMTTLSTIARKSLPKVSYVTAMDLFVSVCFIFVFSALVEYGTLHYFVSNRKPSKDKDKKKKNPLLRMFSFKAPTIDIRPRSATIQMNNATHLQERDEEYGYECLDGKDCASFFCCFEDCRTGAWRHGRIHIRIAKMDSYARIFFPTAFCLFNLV
# Excerpt: (§2) HEK293 cells were transfected using lipofectamine LTX (Dugue, G. P., et al. Neuron, 2009, 61, 126-139). To ensure expression of the γ2 subunit (required for modulation of GABAARs by BDZs) in all recorded cells, the inventors transfected cells with a plasmid expressing the γ2 subunit plus eGFP from an IRES, and only selected eGFP-positive cells for recordings. The transfection mixture contained (in μg): 1 α1, 1 β2, 3 γ2/eGFP (used as a marker of successful transfection) or 1 αx, 1 β3, 3 γ2/eGFP in case of α2, α3, or α5GABAARs. Recordings were made 18-36 hrs after transfection. Whole-cell patch-clamp recordings of GABA-evoked currents were made at room temperature (20-24° C.) and at a holding potential of −60 mV. Recording electrodes were filled with solution containing (in mM): 120 CsCl, 10 EGTA, 10 HEPES (pH 7.40), 4 MgCl2, 0.5 GTP and 2 ATP. The external solution contained (in mM): 150 NaCl, 10 KCl, 2.0 CaCl2, 1.0 MgCl2, 10 HEPES (pH 7.4), and 10 glucose. GABA was applied to the recorded cell using a manually controlled pulse (4-6 s) of a low sub-saturating GABA concentration (ECS). ECs values of GABA were determined for all subunit combinations analyzed. […] Imax was determined as the average maximal current elicited by a concentration of 1 mM GABA. […]
# histamine-induced itch = histamine-induced itch (cheek injection) in wild-type mice; type: in vivo, wild-type C57BL6/J mice; conditions: per oral 0.01, 0.03, 0.1, 1 and 3 mg/kg 90 min before 100 μg histamine; 30 min
# Protocol: as §1
# α1 GABAARs = target: T2, α1 GABAARs (Homo sapiens, UniProt P14867+P18507); assay: GABA-evoked currents, recombinant GABAARs in HEK293 cells (α1); type: cell-based; conditions: HEK293 cells transiently transfected
# T2 construct: expressed in transfected cells; host or cells: HEK293 cells (ATCC), transient transfection
# T2 sequence (P14867 28-456): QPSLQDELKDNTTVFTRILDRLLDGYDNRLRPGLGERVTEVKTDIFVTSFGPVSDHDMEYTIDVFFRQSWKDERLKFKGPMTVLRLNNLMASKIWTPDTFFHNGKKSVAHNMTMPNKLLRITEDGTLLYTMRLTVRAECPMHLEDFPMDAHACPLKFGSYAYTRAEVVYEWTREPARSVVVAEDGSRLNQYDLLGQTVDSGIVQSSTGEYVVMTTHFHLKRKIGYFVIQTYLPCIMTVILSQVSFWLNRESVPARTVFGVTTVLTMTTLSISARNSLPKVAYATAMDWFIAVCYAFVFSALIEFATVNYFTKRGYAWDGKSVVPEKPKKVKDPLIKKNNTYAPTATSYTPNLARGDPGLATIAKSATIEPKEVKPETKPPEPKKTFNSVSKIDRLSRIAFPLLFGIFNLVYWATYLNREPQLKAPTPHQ
# T2 sequence (P47870 25-512 partner limits assumed): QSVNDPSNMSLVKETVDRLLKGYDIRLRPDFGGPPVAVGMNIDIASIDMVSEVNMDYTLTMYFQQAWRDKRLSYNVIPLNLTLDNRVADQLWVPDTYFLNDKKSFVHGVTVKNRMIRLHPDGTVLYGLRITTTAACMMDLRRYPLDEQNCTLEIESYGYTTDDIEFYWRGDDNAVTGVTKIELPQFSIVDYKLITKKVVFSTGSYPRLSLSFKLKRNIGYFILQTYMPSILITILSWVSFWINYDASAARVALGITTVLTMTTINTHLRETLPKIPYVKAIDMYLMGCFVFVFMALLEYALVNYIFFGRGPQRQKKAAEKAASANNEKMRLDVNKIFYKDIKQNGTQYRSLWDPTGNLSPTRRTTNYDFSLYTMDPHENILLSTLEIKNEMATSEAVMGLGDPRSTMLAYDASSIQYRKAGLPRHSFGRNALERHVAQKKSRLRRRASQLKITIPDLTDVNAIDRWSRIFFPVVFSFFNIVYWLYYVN
# T2 sequence (P18507 40-467 limits assumed): as the sequence (P18507 40-467 limits assumed) above
# Excerpt: as §2
# α2GABAARs = assay: chloroquine-induced biting (thigh injection) in hoxB8-α2−/−, α2fl/fl and α2 (H→R) mice; type: in vivo; conditions: 1 mg/kg p.o., 100 μg chloroquine thigh
# Protocol: as §1
# [2] = system: GABA-IPSCs in GRP neurons; assay: GABAergic IPSCs in GRP neurons, whole-cell recordings in spinal cord slices; type: cell-based, GRP::eGFP mice; conditions: 1 μM; n=7
# Protocol: Transverse spinal cord slices ([…]) were prepared from 20 to 29-day old GRP::eGFP mice of either sex as described previously (Dugue, G. P., et al. Neuron, 2009, 61, 126-139). Whole-cell patch clamp recordings were made at room temperature targeting eGFP positive neurons. During recordings, slices were continuously superfused at the rate of 1-2 ml/min with aSCF containing (in mM): 120 NaCl, 2.5 KCl, 1.25 NaH2PO4, 26 […], 5 HEPES, 1 MgCl2, 2 CaCl2) and 14.6 glucose (pH 7.4), equilibrated with 95% O2, 5% CO2. Recorded neurons were voltage clamped at −70 mV using an EPC 9 amplifier (HEKA Elektronic, Lambrecht, Germany) controlled with Patchmaster acquisition software. […] IPSCs were evoked by electrical stimulation (300 μs, 0.2-50 V) at 0.05 Hz using glass electrode filled with aCSF and placed 50-100 μm from the soma of the recorded cell. […] At the end of the recordings bicuculline (10 μM) was added to confirm the GABAergic nature of the recorded IPCSs. The weighted decay time constant (τw) was calculated from dual-exponential fits using the following equation: Tw=(τ1A1+τ2A2)/(A1+A2) where τ1 and τ2 are the fast and the slow decay time constants and A1 and A2 are the equivalent amplitude weighting factors (Labrakakis, C., Lorenzo, L. E., Bories, C., Ribeiro-da-Silva, A. & De Koninck, Y Mol Pain, 2009, 5, 24). […]
# chloroquine-induced itch = chloroquine-induced itch (thigh injection), intrathecal drug, wild-type mice; type: in vivo; conditions: 0.3 mg/kg intrathecal; 100 μg chloroquine into right thigh
# Protocol: as §1
smiles,measurement,setting,value
"CC(C)(O)c1cnn2c(-c3ccc(F)c(-c4c(F)cccc4C#N)c3)cnc2n1 [TPA023B, 6,2′-difluoro-5′-[3-(1-hydroxy-1-methylethyl)imidazo[1,2-b][1,2,4]triazin-7-yl]biphenyl-2-carbonitrile]",antipruritic action in HRRR mice,[1],completely lost its antipruritic action
same,activity at the benzodiazepine binding site (potentiation of GABA-induced currents),α3 GABAARs,partial agonistic activity
same,"scratching bouts, histamine-induced itch",histamine-induced itch,dose-dependent reduction of scratching bouts
same,potentiation of GABA-induced currents,α1 GABAARs,did not potentiate GABA-induced currents
same,"biting responses, hoxB8-α2−/− mice vs global α2R/R mice",α2GABAARs,No significant difference
same,biting responses in treated mice compared between genotypes,"α2GABAARs; hoxB8-α2−/−, α2fl/fl and α2 (H→R) mice",differed significantly between genotypes
same,amplitude of GABA-IPSCs,[2],did not affect the amplitude
same,prolongation of the decay of GABA-IPSCs,[2],43±10%
same,"antipruritic action after intrathecal injection (biting time, scratching bouts 0-10 min)",chloroquine-induced itch,antipruritic action
